We go through 2 compounds from ChEMBL document CHEMBL5370648, “Rational Design of Bioorthogonally Activatable PROTAC for Tumor-Targeted Protein Degradation” (J Med Chem, 2023).

The structures appear in SMILES notation. Active and inactive are the calls of the source. The rule behind the calls is not given here.

Data set [1] can be described thus: Retention time of the compound by HPLC method. Format: physicochemical.
The test system of data set [2] is T47D. Put plainly: Cytotoxicity against human T47D cells assessed as inhbition of cell growth at 20.0 uM measured after 48 hrs by CCK-8 method. The class given is functional, cell-based.
The test system of data set [3] is MDA-MB-231. Put plainly: Cytotoxicity against human MDA-MB-231 cells assessed as inhbition of cell growth at 20.0 uM measured after 48 hrs by CCK-8 method. Format: functional, cell-based.
Data set [4] has as its system T47D. Briefly: Cytotoxicity against human T47D cells assessed as inhbition of cell growth measured after 48 hrs by CCK-8 method. The class given is functional, cell-based.
Data set [5] deals with MDA-MB-231. Briefly: Cytotoxicity against human MDA-MB-231 cells assessed as inhbition of cell growth measured after 48 hrs by CCK-8 method. To be noted: MDA-MB-231, 48 h. The class given is functional, cell-based.
The subject of data set [6] is MCF7. Briefly: Cytotoxicity against human MCF7 cells assessed as inhbition of cell growth measured after 48 hrs by CCK-8 method. Format: functional, cell-based. To be noted: MCF7, 48 h.
Data set [7] deals with T1, von Hippel-Lindau disease tumor suppressor/Bromodomain-containing protein 4 (Homo sapiens, UniProt O60885+P40337). Briefly: PROTAC activity at BRD4/VHL E3 ligase in human T47D cells assessed as decrease in BRD4 expression incubated for 48 hrs by Western blot analysis. Format: cell-based.
T1 sequence (P40337 whole entry, looked up, other chains not shown): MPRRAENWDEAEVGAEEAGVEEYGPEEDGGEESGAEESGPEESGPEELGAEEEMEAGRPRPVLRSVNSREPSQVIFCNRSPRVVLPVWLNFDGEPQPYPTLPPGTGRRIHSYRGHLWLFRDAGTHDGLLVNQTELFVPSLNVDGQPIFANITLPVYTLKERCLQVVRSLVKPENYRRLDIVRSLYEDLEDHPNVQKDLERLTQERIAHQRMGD
For data set [8], the target named is T1, von Hippel-Lindau disease tumor suppressor/Bromodomain-containing protein 4. Briefly: PROTAC activity at BRD4/VHL E3 ligase in human MDA-MB-231 cells assessed as decrease in BRD4 expression incubated for 48 hrs by Western blot analysis. The class given is cell-based.
The target is the same in data set [9]. Put plainly: PROTAC activity at BRD4/VHL E3 ligase in human MCF7 cells assessed as decrease in BRD4 expression incubated for 48 hrs by Western blot analysis. The class given is cell-based.
The target is the same in data set [10]. Put plainly: PROTAC activity at BRD4/VHL E3 ligase in human T47D cells assessed as suppression of c-Myc expression incubated for 48 hrs by Western blot analysis. The class given is cell-based.
For data set [11] the target is unchanged. Put plainly: PROTAC activity at BRD4/VHL E3 ligase in human T47D cells assessed as induction of degradation of intracellular BRD4 at 200 nM incubated for 48 hrs by immunofluorescence staining assay. The class given is cell-based.
For data set [12] the target is unchanged. Briefly: PROTAC activity at BRD4/VHL E3 ligase in human MDA-MB-231 cells assessed as induction of degradation of intracellular BRD4 at 200 nM incubated for 48 hrs by immunofluorescence staining assay. Format: cell-based.
Data set [13] shares this target. Briefly: PROTAC activity at BRD4/VHL E3 ligase in human MCF7 cells assessed as induction of degradation of intracellular BRD4 at 200 nM incubated for 48 hrs by immunofluorescence staining assay. Format: cell-based.
The target is the same in data set [14]. Briefly: PROTAC activity at BRD4/VHL E3 ligase in human T47D cells assessed as induction of degradation of BRD4 at upto 1000 nM incubated for 48 hrs in presence of MG132 by immunofluorescence staining assay. Format: cell-based.
For data set [15] the target is unchanged. Briefly: PROTAC activity at BRD4/VHL E3 ligase in human T47D cells assessed as induction of degradation of BRD4 at upto 1000 nM incubated for 48 hrs in presence of MLN4924 by immunofluorescence staining assay. Format: cell-based.
Data set [16] has the same target. Briefly: PROTAC activity at BRD4/VHL E3 ligase in human T47D cells assessed as degradation of BRD4 expression incubated for 48 hrs by Western blot analysis. Format: cell-based.
For data set [17] the target is unchanged. Briefly: PROTAC activity at BRD4/VHL E3 ligase in human MDA-MB-231 cells assessed as degradation of BRD4 expression incubated for 48 hrs by Western blot analysis. The class given is cell-based.
The target is the same in data set [18]. Briefly: PROTAC activity at BRD4/VHL E3 ligase in human MCF7 cells assessed as degradation of BRD4 expression incubated for 48 hrs by Western blot analysis. The class given is cell-based.
For data set [19] the target is unchanged. Briefly: PROTAC activity at BRD4/VHL E3 ligase in human MDA-MB-231 cells assessed as suppression of c-Myc expression incubated for 48 hrs by Western blot analysis. The class given is cell-based.
Data set [20] shares this target. Briefly: PROTAC activity at BRD4/VHL E3 ligase in human MCF7 cells assessed as suppression of c-Myc expression incubated for 48 hrs by Western blot analysis. Format: cell-based.
Data set [21] has the same target. Put plainly: PROTAC activity at BRD4/VHL E3 ligase in human T47D cells assessed as activation of caspase-3 expression incubated for 48 hrs by Western blot analysis. The class given is cell-based.
The target is the same in data set [22]. Put plainly: PROTAC activity at BRD4/VHL E3 ligase in human MDA-MB-231 cells assessed as activation of caspase-3 expression incubated for 48 hrs by Western blot analysis. The class given is cell-based.
Data set [23] shares this target. Put plainly: PROTAC activity at BRD4/VHL E3 ligase in human MCF7 cells assessed as activation of caspase-3 expression incubated for 48 hrs by Western blot analysis. Format: cell-based.
The subject of data set [24] is MCF7. Put plainly: Antitumor activity against human MCF7 cells xenografted in BALB/c nude mouse assessed as tumor growth inhibition at 10 mg/kg measured after 16 days. As to conditions: time 16.0 day. The class given is functional, organism-based.
Data set [25] concerns MCF7. Briefly: Antitumor activity against human MCF7 cells xenografted in BALB/c nude mouse assessed as fold increase in tumor volume at 10 mg/kg measured at day 23 post injection. Format: functional. As to conditions: time 23 day.
Data set [26] in a line: Toxicity in BALB/c nude mouse assessed as animal death at 10 mg/kg measured after 16 days. The class given is organism-based. As to conditions: in vivo, 384 h, time 16 day.
For data set [27], the system named is MCF7. Briefly: Antitumor activity against human MCF7 cells xenografted in BALB/c nude mouse model assessed as inhibition of tumor cell proliferation by measuring reduction in Ki67 staining at 10 mg/kg administered for 16 days by immunohistochemical analysis. Format: functional, organism-based. As to conditions: time 16.0 day.
The target in data set [28] is T1, von Hippel-Lindau disease tumor suppressor/Bromodomain-containing protein 4. Put plainly: In vivo PROTAC activity at BRD4/VHL E3 ligase in BALB/c nude mouse xenografted with human MCF7 cells assessed as reduction in BRD4 protein level in tumor 10 mg/kg measured after 48 hrs by Western blot analysis. Format: functional, organism-based.
Data set [29] has as its system MCF7. Briefly: Antitumor activity against human MCF7 cells xenografted in BALB/c nude mouse assessed as apoptosis at 10 mg/kg measured after 48 hrs by Western blot analysis. The class given is functional, organism-based.

The compound `Cc1ncsc1-c1ccc([C@H](C)NC(=O)[C@@H]2C[C@@H](OC(=O)OC3/C=C/CCCCC3)CN2C(=O)[C@@H](NC(=O)COCCOCCOCCNC(=O)CC2N=C(c3ccc(Cl)cc3)c3c(sc(C)c3C)-n3c(C)nnc32)C(C)(C)C)cc1` (stereo not given in full) had a Retention_time in data set [1] of 19.3 min. Moreover, the outcome with T47D [2] and with MDA-MB-231 [3] was inactive.
`Cc1ncsc1-c1ccc([C@H](C)NC(=O)[C@@H]2C[C@@H](O)CN2C(=O)[C@@H](NC(=O)COCCOCCOCCNC(=O)CC2N=C(c3ccc(Cl)cc3)c3c(sc(C)c3C)-n3c(C)nnc32)C(C)(C)C)cc1` (stereo not given in full): the Retention_time in [1] was found to be 18.96 min. Further, the IC50 with T47D [4] came to 253 nM; with MDA-MB-231 [5] it was 225 nM; in the data set on MCF7 [6] it was 183 nM. Besides, the concentration for a half-maximal effect (EC50) in data set [7] turned out to be 56.6 nM; in data set [8], 3.96 nM; in data set [9], 50.3 nM. Moreover, the result in data set [10], in data set [11], in data set [12], in data set [13], in data set [16] and in [17] was Active. Also, the result in data set [18], in data set [19], in data set [20], in [21], in data set [22] and in data set [23] was Active. The outcome (with MCF7 [24]; in the data set on MCF7 [27]; in [28]; with MCF7 [29]) was Active. Further, the outcome in data set [14] and in [15] was inactive. Further, the “fold change (FC)” value in the data set on MCF7 [25] was found to be 1.58. Further, in data set [26], the Activity entry is “Toxic”.
